Test results published in patent publication US20110135575A1, “METALLOPROTEIN MRI CONTRAST AGENTS AND RELATED METHODS” (Massachusetts Institute of Technology, priority 2007, published 2011).

Tests used:
BM3 protein = BM3 protein (Priestia megaterium, UniProt P14779); assay: biochemical
Source text: In another example, a spectroscopic assay based on analyte-induced absorbance shifts was employed to estimate binding affinities and ligand selectivity of the mutant proteins in the above Examples. […] This method allowed both an estimation of an analyte's dissociation constant and a determination of selectivity.

[1] = T1 relaxivity by MRI in the presence of dopamine; conditions: Example 3, FIGS. 8-9
Source text: To determine the extent of that the interaction between exchanging water molecules at the axial site and the heme iron atom promotes T1 relaxation in aqueous solutions, a spin echo MRI pulse sequence was used to measure the proton relaxation rate as a function of protein concentration in phosphate buffered saline solution (PBS); the slope of this relationship (T1 relaxivity, or r1) provided a standard measure of the strength of a contrast agent.
Samples (60-100 microliters) were arrayed into microtiter plates and placed in a 40-cm-bore Bruker (Billerica, Mass.) Avance 4.7 T MRI scanner, equipped with a 10 cm inner diameter birdcage resonator radiofrequency coil and 26 G/cm triple axis gradients. Unused wells of the microtiter plates were filled with phosphate buffered saline, and imaging was performed on a 2-mm slice through the sample. A T1-weighted spin echo pulse sequence was used; echo time (TE) was 10 ms, and repetition times (TR) ranged from 77 ms to 5 s. Data matrices of 512×128 points were acquired and zero-filled to 1024×512 points, where the second dimension corresponds to the phase encoding direction. Images were reconstructed and analyzed using custom routines running in Matlab. Relaxation rates and relaxivities reported here were calculated by exponential fitting to the image data.

[2] = T1 relaxivity / T1-weighted images in the presence of melatonin; format: biochemical; conditions: Example 3, FIGS. 8-9

Procedure for PC12 cells: PC12 cells were grown in suspension in F-12K medium supplemented with 15% horse serum and 2.5% fetal bovine serum (ATCC, Manassas, Va.). In preparation for DA release experiments, 50 mL cell cultures were incubated for one hour in medium supplemented with 1 mM DA and 1 mM ascorbic acid, pelleted and washed twice with Locke's buffer (154 mM NaCl, 5.6 mM KCl, 3.6 mM NaHCO3, 2.3 mM CaCl2, 5.6 mM D-glucose, and 5 mM HEPES, pH 7.4). Washed PC12 cell pellets were resuspended in 200 microliters of Locke's buffer, with or without 32 micromolar BM3h-B7 sensor and containing either 5.6 or 59.6 mM K^+ (the low K^+ condition was osmotically balanced with Na^+). After 30-60 minutes incubation at room temperature, cells were pelleted and the supernatant was imaged in an MRI scanner as described above.

| Molecule | Kd (BM3 protein) | DA concentration by ELISA, stimulated cells (PC12 cells; K+-stimulated PC12 cells) | DA concentration by ELISA, control cells (PC12 cells; Na+ control PC12 cells) | relative T1 relaxivity response to DA versus 5-HT [1] | T1 relaxivity response to melatonin [2] |
| --- | --- | --- | --- | --- | --- |
| NCCc1c[nH]c2ccc(O)cc12 [serotonin] | ~1000 µM | – | – | – | – |
| NCCc1ccc(O)c(O)c1 [dopamine] | ~1000 µM | 54 ± 9 µM | 13 ± 2 µM | – | – |
| wild type BM3: wild type cytochrome P450-BM3 from Bacillus megaterium, provided by Frances Arnold's laboratory (protein, UniProt P14779 1-1049, looked up) Bifunctional cytochrome …: MTIKEMPQPKTFGELKNLPLLNTDKPVQALMKIADELGEIFKFEAPGRVTRYLSSQRLIKEACDESRFDKNLSQALKFVRDFAGDGLFTSWTHEKNWKKAHNILLPSFSQQAMKGYHAMMVDIAVQLVQKWERLNADEHIEVPEDMTRLTLDTIGLCGFNYRFNSFYRDQPHPFITSMVRALDEAMNKLQRANPDDPAYDENKRQFQEDIKVMNDLVDKIIADRKASGEQSDDLLTHMLNGKDPETGEPLDDENIRYQIITFLIAGHETTSGLLSFALYFLVKNPHVLQKAAEEAARVLVDPVPSYKQVKQLKYVGMVLNEALRLWPTAPAFSLYAKEDTVLGGEYPLEKGDELMVLIPQLHRDKTIWGDDVEEFRPERFENPSAIPQHAFKPFGNGQRACIGQQFALHEATLVLGMMLKHFDFEDHTNYELDIKETLTLKPEGFVVKAKSKKIPLGGIPSPSTEQSAKKVRKKAENAHNTPLLVLYGSNMGTAEGTARDLADIAMSKGFAPQVATLDSHAGNLPREGAVLIVTASYNGHPPDNAKQFVDWLDQASADEVKGVRYSVFGCGDKNWATTYQKVPAFIDETLAAKGAENIADRGEADASDDFEGTYEEWREHMWSDVAAYFNLDIENSEDNKSTLSLQFVDSAADMPLAKMHGAFSTNVVASKELQQPGSARSTRHLEIELPKEASYQEGDHLGVIPRNYEGIVNRVTARFGLDASQQIRLEAEEEKLAHLPLAKTVSVEELLQYVELQDPVTRTQLRAMAAKTVCPPHKVELEALLEKQAYKEQVLAKRLTMLELLEKYPACEMKFSEFIALLPSIRPRYYSISSSPRVDEKQASITVSVVSGEAWSGYGEYKGIASNYLAELQEGDTITCFISTPQSEFTLPKDPETPLIMVGPGTGVAPFRGFVQARKQLKEQGQSLGEAHLYFGCRSPHEDYLYQEELENAQSEGIITLHTAFSRMPNQPKTYVQHVMEQDGKKLIELLDQGAHFYICGDGSQMAPAVEATLMKSYADVHQVSEADARLWLQQLEEKGRYAKDVWAG | – | – | – | greater response to DA | minimal response |
